These results are taken from publication PMC10695193 (RSC Advances, 2023).

Test [1] has as its target EGFR^T790M (Homo sapiens, UniProt P00533, T790M). As to the kind of experiment: EGFR^T790M kinase inhibitory assay. Type of test: biochemical.
For test [2], the system named is A549. As to the kind of experiment: MTT anti-proliferative assay, A549. Type of test: cell-based. The following applies: for IC50: Homo sapiens, A549, 72 h, read-out: IC50 A549; for folds toxic in A549 than in ordinary VERO cells: A549 versus VERO. (In general: Tetrazolium dyes change colour on reduction, which living cells bring about.)
The target in test [3] is VEGFR-2 (Homo sapiens, UniProt P35968). As to the kind of experiment: VEGFR-2 kinase inhibitory assay. Type of test: biochemical.
Sequence of VEGFR-2 (P35968 20-1356): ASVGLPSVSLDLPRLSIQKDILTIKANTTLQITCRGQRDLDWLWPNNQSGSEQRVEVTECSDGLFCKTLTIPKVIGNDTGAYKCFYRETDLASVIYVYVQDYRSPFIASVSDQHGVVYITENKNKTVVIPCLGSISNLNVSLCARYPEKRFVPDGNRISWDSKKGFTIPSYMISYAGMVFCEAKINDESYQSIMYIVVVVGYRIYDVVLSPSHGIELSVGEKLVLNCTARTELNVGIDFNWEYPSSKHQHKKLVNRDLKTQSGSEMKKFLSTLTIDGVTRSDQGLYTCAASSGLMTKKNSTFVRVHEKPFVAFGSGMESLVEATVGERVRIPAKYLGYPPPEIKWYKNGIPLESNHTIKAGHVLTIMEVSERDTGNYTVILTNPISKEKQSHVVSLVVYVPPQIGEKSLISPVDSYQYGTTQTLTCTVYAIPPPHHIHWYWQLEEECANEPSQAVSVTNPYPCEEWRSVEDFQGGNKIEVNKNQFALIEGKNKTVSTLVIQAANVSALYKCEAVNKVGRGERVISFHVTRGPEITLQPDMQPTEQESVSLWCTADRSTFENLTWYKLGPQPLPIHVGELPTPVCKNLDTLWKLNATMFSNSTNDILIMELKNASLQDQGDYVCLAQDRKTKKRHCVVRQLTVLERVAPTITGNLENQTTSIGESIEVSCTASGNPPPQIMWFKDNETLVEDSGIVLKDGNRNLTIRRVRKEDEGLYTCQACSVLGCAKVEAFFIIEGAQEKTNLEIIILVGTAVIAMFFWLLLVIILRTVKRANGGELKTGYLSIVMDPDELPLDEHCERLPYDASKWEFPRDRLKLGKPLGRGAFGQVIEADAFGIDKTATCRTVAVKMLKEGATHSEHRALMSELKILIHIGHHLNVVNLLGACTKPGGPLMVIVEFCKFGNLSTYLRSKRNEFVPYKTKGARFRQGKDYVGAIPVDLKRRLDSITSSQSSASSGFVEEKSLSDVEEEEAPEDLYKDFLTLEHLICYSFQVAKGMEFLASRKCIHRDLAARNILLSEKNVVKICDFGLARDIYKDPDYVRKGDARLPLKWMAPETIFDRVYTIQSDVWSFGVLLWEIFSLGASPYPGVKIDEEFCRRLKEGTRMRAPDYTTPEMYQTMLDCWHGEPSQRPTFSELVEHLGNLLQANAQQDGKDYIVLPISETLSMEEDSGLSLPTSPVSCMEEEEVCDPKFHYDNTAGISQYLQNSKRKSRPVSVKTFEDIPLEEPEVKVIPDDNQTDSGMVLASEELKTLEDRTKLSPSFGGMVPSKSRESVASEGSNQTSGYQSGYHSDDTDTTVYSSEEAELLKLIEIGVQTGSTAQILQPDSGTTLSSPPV
Test [4] has as its system HepG2. Kind of test: MTT anti-proliferative assay, HepG2. Type of test: cell-based. As to conditions: for IC50: Homo sapiens, HepG2, 72 h, read-out: IC50 HepG2; for fold times more toxic in HepG-2 than in VERO normal cells: HepG-2 versus VERO.
For test [5], the system named is MCF-7. As to the kind of experiment: MTT anti-proliferative assay, MCF-7. Type of test: cell-based. The following applies: for IC50: Homo sapiens, MCF7, 72 h, read-out: IC50 MCF-7; for folds toxic in MCF-7 than in ordinary VERO cells: MCF-7 versus VERO.
In test [6] the test system is HCT-116. As to the kind of experiment: MTT anti-proliferative assay, HCT-116. Type of test: cell-based. The following applies: for IC50: Homo sapiens, HCT-116, 72 h, read-out: IC50 HCT116; for folds toxic in HCT-116 than in normal VERO cells: HCT-116 versus VERO.

Sequence of EGFR^T790M (P00533 25-1210 T790M): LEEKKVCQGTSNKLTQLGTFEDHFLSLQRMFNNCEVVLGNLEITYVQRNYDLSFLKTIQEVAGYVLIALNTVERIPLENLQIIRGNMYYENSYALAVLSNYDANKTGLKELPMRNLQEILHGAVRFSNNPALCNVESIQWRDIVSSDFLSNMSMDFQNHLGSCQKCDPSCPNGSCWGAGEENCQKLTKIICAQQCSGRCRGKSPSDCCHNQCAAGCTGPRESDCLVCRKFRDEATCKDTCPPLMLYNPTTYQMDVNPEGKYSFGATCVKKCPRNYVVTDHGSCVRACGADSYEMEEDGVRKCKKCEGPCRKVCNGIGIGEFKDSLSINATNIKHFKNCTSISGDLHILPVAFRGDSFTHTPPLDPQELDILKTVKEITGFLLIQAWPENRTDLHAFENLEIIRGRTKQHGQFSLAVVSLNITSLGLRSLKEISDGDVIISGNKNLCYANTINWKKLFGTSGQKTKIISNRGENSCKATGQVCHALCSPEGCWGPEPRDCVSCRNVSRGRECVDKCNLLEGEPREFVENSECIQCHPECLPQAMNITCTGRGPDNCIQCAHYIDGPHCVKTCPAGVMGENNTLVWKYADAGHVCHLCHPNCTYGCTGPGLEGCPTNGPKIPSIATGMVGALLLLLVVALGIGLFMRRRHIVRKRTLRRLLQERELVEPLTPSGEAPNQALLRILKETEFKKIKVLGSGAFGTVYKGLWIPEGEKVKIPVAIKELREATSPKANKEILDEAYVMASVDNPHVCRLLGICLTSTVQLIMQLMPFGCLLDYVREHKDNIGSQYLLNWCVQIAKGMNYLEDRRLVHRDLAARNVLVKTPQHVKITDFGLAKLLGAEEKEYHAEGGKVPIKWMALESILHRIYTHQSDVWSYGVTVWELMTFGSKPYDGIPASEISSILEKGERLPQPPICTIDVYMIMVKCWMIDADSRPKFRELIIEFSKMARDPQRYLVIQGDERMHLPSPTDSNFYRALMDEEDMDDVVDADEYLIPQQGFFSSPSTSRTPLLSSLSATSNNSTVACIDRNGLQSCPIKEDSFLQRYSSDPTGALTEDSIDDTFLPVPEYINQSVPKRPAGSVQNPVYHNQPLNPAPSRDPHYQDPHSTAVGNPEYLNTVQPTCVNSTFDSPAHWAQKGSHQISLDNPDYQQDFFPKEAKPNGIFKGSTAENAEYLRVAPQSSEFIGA

On to `N#CC(=NNc1ccc(N=Nc2ccccc2)cc1)c1nc(=S)[nH][nH]1` [Compound 9, N-[4-(Phenyldiazenyl)phenyl]-5-thioxo-2,5-dihydro-1H-1,2,4-triazole-3-carbohydrazonoyl-cyanide], for which the IC50 – broadly, the concentration that gives 50% inhibition – in test [1] worked out at 1.35 ± 0.15 µM; in test [2] it was 12.2 ± 2.5 µM; in test [3] it was 2 ± 0.1 µM; in test [4], 14.5 ± 2.8 µM; in test [5], 13.8 ± 3 µM; in test [6], 16.8 ± 3.3 µM.

For `NC1=NN(c2ccccc2)C(=O)C1=NNc1ccc(N=Nc2ccccc2)cc1` [Compound 5, 5-Amino-2-phenyl-4-{2-[4-(phenyldiazenyl)phenyl]hydrazono}-2,4-dihydro-3H-pyrazol-3-one], the IC50 was 0.4 ± 0.35 µM in test [1]; 6.5 ± 1.5 µM in test [2]; 1.25 ± 0.5 µM in test [3]; 7.8 ± 0.7 µM in test [4]; 6.98 ± 1.1 µM in test [5]; 8.12 ± 0.9 µM in test [6]. The “folds toxic in A549 than in ordinary VERO cells” value (“folds toxic in A549 than” for short) in test [2] is 8.86 folds. Further, in test [4], the “fold times more toxic in HepG-2 than in VERO normal cells” value (shortened to “fold times more toxic in HepG-2 than”) amounted to 5.72 fold. Moreover, the “folds toxic in MCF-7 than in ordinary VERO cells” value (from here on “folds toxic in MCF-7 than”) in test [5] is given as 6.21 folds. In test [6], the “folds toxic in HCT-116 than in normal VERO cells” value (“folds toxic in HCT-116 than” below) came out at 5.53 folds.

With `C#Cc1cccc(Nc2ncnc3cc(OCCOC)c(OCCOC)cc23)c1` [Erlotinib, reference compound], the IC50 in test [5] amounted to 8.2 ± 0.34 µM.

Turning to `N#Cc1nn(-c2ccc(N=Nc3ccccc3)cc2)c(=O)[nH]c1=O` [Compound 12, 3,5-Dioxo-2-[4-(phenyldiazenyl)phenyl]-2,3,4,5-tetrahydro-1,2,4-triazine-6-carbonitrile], the IC50 in test [1] came to 0.95 ± 0.35 µM; in test [2], 9.25 ± 1.5 µM; in test [3] it was 3.5 ± 0.5 µM; in test [4], 21.1 ± 4.9 µM; in test [5], 30.2 ± 4.8 µM; in test [6], 22.5 ± 4.8 µM.

On to `NC1=NOC(=O)C1=NNc1ccc(N=Nc2ccccc2)cc1` [Compound 3, 3-Amino-4-{2-[4-(phenyldiazenyl)phenyl]hydrazono}isoxazol-5(4H)-one], for which the IC50 in test [1] is 2.1 ± 0.25 µM; in test [2] it was 25.5 ± 3.5 µM; in test [3], 3.25 ± 0.5 µM; in test [4], 19 ± 4.4 µM; in test [5], 17.6 ± 4.5 µM; in test [6] it was 16.8 ± 3.7 µM.

Take `NC(=O)N1N=C(N)C(N=Nc2ccc(N=Nc3ccccc3)cc2)C1=O` (stereo not drawn) [Compound 7, 3-Amino-5-oxo-4-{[4-(phenyldiazenyl)phenyl]diazenyl}-4,5-dihydro-1H-pyrazole-1-carboxamide]: the 50% inhibitory concentration (IC50) was found to be 0.9 ± 0.25 µM in test [1]; 8.5 ± 0.5 µM in test [2]; 2.35 ± 0.2 µM in test [3]; 15.6 ± 3.5 µM in test [4]; 14.2 ± 3.5 µM in test [5]; 17.5 ± 4 µM in test [6].

`N#Cc1nn(-c2ccc(N=Nc3ccccc3)cc2)c(=S)n(-c2ccccc2)c1=O` [Compound 10, 5-Oxo-4-phenyl-2-[4-(phenyldiazenyl)phenyl]-3-thioxo-2,3,4,5-tetrahydro-1,2,4-triazine-6-carbonitrile]: the IC50 is 0.5 ± 0.25 µM in test [1]; 7.35 ± 1.5 µM in test [2]; 1.5 ± 0.1 µM in test [3]; 6.81 ± 1.9 µM in test [4]; 7.28 ± 2.4 µM in test [5]; 9.23 ± 2.2 µM in test [6]. Moreover, the “folds toxic in A549 than” value in test [2] came out at 8.67 folds. For the same compound, the “fold times more toxic in HepG-2 than” value in test [4] came out at 6.39 fold. Moreover, the “folds toxic in MCF-7 than” value in test [5] is 5.81 folds. Also, the “folds toxic in HCT-116 than” value in test [6] came to 4.96 folds.

As to `NC1=NN(c2ccc([N+](=O)[O-])cc2[N+](=O)[O-])C(=O)C1=NNc1ccc(N=Nc2ccccc2)cc1` [Compound 6, 5-Amino-2-(2,4-dinitrophenyl)-4-{2-[4-(phenyldiazenyl)phenyl]hydrazono}-2,4-dihydro-3H-pyrazol-3-one], the IC50 in test [1] was 0.35 ± 0.15 µM; in test [2] it was 5.88 ± 0.5 µM; in test [3] it was 1.6 ± 0.5 µM; in test [4], 8.17 ± 2.6 µM; in test [5], 9.11 ± 2.7 µM; in test [6] it was 10.1 ± 2.9 µM. For the same compound, the “folds toxic in A549 than” value in test [2] came to 6.54 folds. Moreover, the “fold times more toxic in HepG-2 than” value in test [4] was determined as 5.49 fold. Further, in test [5], the “folds toxic in MCF-7 than” value is listed as 4.59 folds. The “folds toxic in HCT-116 than” value in test [6] is on record as 4.47 folds.

For `N#Cc1nn(-c2ccc(N=Nc3ccccc3)cc2)c(=N)[nH]c1=O` [Compound 13, 3-Imino-5-oxo-2-[4-(phenyldiazenyl)phenyl]-2,3,4,5-tetrahydro-1,2,4-triazine-6-carbonitrile], the half-maximal inhibitory concentration (IC50) in test [1] was 1.5 ± 0.15 µM; in test [2] it was 15.5 ± 2.5 µM; in test [3], 3.35 ± 0.5 µM; in test [4] it was 20.5 ± 4.2 µM; in test [5], 23.1 ± 3.8 µM; in test [6], 20.1 ± 3.5 µM.

For `N#Cc1nn(-c2ccc(N=Nc3ccccc3)cc2)c(=N)n(S(=O)(=O)c2ccc(N)cc2)c1=O` [Compound 14, 4-[(4-Aminophenyl)sulfonyl]-3-imino-5-oxo-2-[4-(phenyldiazenyl)phenyl]-2,3,4,5-tetrahydro-1,2,4-triazine-6-carbonitrile], the IC50 is 0.25 ± 0.15 µM in test [1]; 5.15 ± 1.5 µM in test [2]; 0.95 ± 0.1 µM in test [3]; 6.23 ± 2.3 µM in test [4]; 6.37 ± 2.5 µM in test [5]; 8.44 ± 2.6 µM in test [6]. Besides, the “folds toxic in A549 than” value in test [2] came out at 10.72 folds. Also, the “fold times more toxic in HepG-2 than” value in test [4] came to 6.86 fold. Besides, the “folds toxic in MCF-7 than” value in test [5] is 5.76 folds. For the same compound, in test [6], the “folds toxic in HCT-116 than” value is given as 7.68 folds.

Take `N#Cc1nn(-c2ccc(N=Nc3ccccc3)cc2)c(=S)[nH]c1=O` [Compound 11, 5-Oxo-2-[4-(phenyldiazenyl)phenyl]-3-thioxo-2,3,4,5-tetrahydro-1,2,4-triazine-6-carbonitrile]: the IC50 worked out at 2.5 ± 0.35 µM in test [1]; 30.2 ± 3.5 µM in test [2]; 3.85 ± 0.5 µM in test [3]; 35.6 ± 4.8 µM in test [4]; 39.2 ± 4.8 µM in test [5]; 37.9 ± 4.6 µM in test [6].

For `NC1=NNC(=O)C1=NNc1ccc(N=Nc2ccccc2)cc1` [Compound 4, 5-Amino-4-{2-[4-(phenyldiazenyl)phenyl]hydrazono}-2,4-dihydro-3H-pyrazol-3-one], the half-maximal inhibitory concentration (IC50) in test [1] is 1.2 ± 0.35 µM; in test [2], 10.8 ± 1.5 µM; in test [3], 1.85 ± 0.1 µM; in test [4], 10.6 ± 3 µM; in test [5] it was 11.3 ± 3.3 µM; in test [6] it was 11.3 ± 3.1 µM.

Take `CNC(=O)c1cc(Oc2ccc(NC(=O)Nc3ccc(Cl)c(C(F)(F)F)c3)cc2)ccn1` [Sorafenib, reference compound]: in test [4], the IC50 is 4 ± 0.33 µM.
